Consider 8 molecules from patent US10995322B2, “Processes to prepare elongated 2-ketoacids and C5-C10 compounds therefrom via genetic modifications to microbial metabolic pathways” (priority 2016, dated 2021).

For one data set, the system named is CCCCCCC(=O)C(=O)O. As to the kind of experiment: purified protein, by the assay type. The note with it: pH 7.5; 30.0 °C.
For data set [1], the target named is Enterobacter cloacae isopropylmalate synthase (Gene Accession No. WP_014830637, SEQ ID NO: 2) variant 1457, M255L/R260A/N264Q/H97A/S139G/N167G/P169A/G462D (Enterobacter cloacae, UniProt A0A0H3CGL5, G462D/H97A/M255L/N167G/N264Q/P169A/R260A/S139G). Particulars: pH 7.5, 30° C.
Sequence of Enterobacter cloacae isopropylmalate synthase (Gene Accession No. WP_014830637, SEQ ID NO: 2) variant 1457, M255L/R260A/N264Q/H97A/S139G/N167G/P169A/G462D (A0A0H3CGL5 entry or part of it G462D/H97A/M255L/N167G/N264Q/P169A/R260A/S139G): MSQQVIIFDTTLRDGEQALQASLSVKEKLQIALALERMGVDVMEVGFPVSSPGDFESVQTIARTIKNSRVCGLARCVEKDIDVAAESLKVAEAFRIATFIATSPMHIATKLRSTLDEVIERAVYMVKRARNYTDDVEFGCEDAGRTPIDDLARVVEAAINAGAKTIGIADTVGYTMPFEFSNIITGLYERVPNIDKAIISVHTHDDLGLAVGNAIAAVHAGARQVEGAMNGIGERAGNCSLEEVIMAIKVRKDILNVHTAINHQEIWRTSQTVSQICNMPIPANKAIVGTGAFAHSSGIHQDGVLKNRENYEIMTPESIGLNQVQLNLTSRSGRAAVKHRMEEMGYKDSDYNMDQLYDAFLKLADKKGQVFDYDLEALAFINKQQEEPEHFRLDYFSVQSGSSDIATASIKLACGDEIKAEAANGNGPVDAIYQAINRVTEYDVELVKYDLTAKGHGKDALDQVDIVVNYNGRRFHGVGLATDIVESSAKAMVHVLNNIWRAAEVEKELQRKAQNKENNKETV
For data set [2], the system named is Citrobacter freundii MGH 56 isopropylmalate synthase (Gene Accession No. KDF09799, SEQ ID NO: 1) variant 1467, G181A/A182G/G210A/A214S/H97A/S139G/N167G/P169A/G4 …. The note with it: 2-ketooctanoate.
In data set [3] the target is Citrobacter freundii MGH 56 isopropylmalate synthase (Gene Accession No. KDF09799, SEQ ID NO: 1) variant 1467, G181A/A182G/G210A/A214S/H97A/S139G/N167G/P169A/G4 (Citrobacter freundii, UniProt A0A0D7LMP4, A182G/A214S/G181A/G210A/G462D/H97A/N167G/P169A/S139G). Particulars: pH 7.5, 30° C.
Sequence of Citrobacter freundii MGH 56 isopropylmalate synthase (Gene Accession No. KDF09799, SEQ ID NO: 1) variant 1467, G181A/A182G/G210A/A214S/H97A/S139G/N167G/P169A/G4 (A0A0D7LMP4 entry or part of it A182G/A214S/G181A/G210A/G462D/H97A/N167G/P169A/S139G): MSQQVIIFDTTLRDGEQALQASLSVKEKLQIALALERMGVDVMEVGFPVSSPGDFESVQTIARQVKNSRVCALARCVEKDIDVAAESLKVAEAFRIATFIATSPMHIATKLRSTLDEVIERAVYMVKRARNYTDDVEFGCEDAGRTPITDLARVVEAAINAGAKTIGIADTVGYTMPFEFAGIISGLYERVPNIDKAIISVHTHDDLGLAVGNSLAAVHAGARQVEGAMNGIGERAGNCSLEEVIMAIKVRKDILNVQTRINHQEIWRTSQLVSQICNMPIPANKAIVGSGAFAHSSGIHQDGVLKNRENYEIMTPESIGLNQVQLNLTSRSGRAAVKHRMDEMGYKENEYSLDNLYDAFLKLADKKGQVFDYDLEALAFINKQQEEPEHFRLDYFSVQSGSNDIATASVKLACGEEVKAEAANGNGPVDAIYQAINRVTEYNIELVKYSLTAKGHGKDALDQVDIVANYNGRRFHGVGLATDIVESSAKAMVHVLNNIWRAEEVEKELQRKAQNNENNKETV
The target of data set [4] is Enterobacter cloacae isopropylmalate synthase (Gene Accession No. WP_014830637, SEQ ID NO: 2) variant 1460, D348E/D350E/M353L/Q355N/H97A/S139G/N167G/P169A/G462D (Enterobacter cloacae, UniProt A0A0H3CGL5, D348E/D350E/G462D/H97A/M353L/N167G/P169A/Q355N/S139G). The note with it: pH 7.5, 30° C.
Sequence of Enterobacter cloacae isopropylmalate synthase (Gene Accession No. WP_014830637, SEQ ID NO: 2) variant 1460, D348E/D350E/M353L/Q355N/H97A/S139G/N167G/P169A/G462D (A0A0H3CGL5 entry or part of it D348E/D350E/G462D/H97A/M353L/N167G/P169A/Q355N/S139G): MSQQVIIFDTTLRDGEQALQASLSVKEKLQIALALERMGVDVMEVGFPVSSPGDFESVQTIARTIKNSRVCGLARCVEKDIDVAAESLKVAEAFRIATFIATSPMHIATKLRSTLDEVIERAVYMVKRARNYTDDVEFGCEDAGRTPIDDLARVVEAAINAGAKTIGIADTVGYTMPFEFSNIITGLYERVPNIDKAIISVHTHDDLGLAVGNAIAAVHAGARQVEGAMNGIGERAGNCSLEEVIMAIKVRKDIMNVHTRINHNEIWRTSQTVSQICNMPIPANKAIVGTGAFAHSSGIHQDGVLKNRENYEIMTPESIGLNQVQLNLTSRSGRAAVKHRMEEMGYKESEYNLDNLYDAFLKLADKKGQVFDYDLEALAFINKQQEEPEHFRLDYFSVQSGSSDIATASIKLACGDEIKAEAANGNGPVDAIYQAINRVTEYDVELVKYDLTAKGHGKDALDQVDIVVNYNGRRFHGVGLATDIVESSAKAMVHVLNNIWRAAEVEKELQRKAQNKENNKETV
Data set [5] deals with Enterobacter cloacae isopropylmalate synthase (Gene Accession No. WP_014830637, SEQ ID NO: 2) variant 1414, H97A/S139G/N167G/P169A/G462D (Enterobacter cloacae, UniProt A0A0H3CGL5, G462D/H97A/N167G/P169A/S139G). Particulars: pH 7.5, 30° C.
Sequence of Enterobacter cloacae isopropylmalate synthase (Gene Accession No. WP_014830637, SEQ ID NO: 2) variant 1414, H97A/S139G/N167G/P169A/G462D (A0A0H3CGL5 entry or part of it G462D/H97A/N167G/P169A/S139G): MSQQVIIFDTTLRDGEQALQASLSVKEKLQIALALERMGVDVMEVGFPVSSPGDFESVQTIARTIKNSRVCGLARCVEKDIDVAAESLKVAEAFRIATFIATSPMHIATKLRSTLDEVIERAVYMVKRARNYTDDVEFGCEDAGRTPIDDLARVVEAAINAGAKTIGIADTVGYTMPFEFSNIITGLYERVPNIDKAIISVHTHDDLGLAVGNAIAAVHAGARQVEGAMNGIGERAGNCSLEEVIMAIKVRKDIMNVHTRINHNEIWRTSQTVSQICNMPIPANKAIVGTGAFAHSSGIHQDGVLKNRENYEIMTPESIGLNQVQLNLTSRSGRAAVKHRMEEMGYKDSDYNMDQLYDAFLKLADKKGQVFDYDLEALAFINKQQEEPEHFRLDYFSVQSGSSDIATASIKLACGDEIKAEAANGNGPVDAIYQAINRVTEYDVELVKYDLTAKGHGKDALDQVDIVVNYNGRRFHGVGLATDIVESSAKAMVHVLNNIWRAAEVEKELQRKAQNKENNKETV
Data set [6] addresses Citrobacter freundii MGH 56 isopropylmalate synthase (Gene Accession No. KDF09799, SEQ ID NO: 1) variant 1409, H97A/S139G/N167G/P169A/G462D (Citrobacter freundii, UniProt A0A0D7LMP4, G462D/H97A/N167G/P169A/S139G). Particulars: pH 7.5, 30° C.
The test system of data set [7] is CC(=O)SCCNC(=O)CCNC(=O)[C@H](O)C(C)(C)COP(=O)(O)OP(=O)(O)OC[C@H]1O[C@@H](n2cnc3c(N)ncnc32)[C@H](O)[C@@H]1OP(=O)(O)O. As to the kind of experiment: purified protein, by the assay type. Particulars: pH 7.5; 30.0 °C.
For data set [8], the target named is Citrobacter freundii MGH 56 isopropylmalate synthase (Gene Accession No. KDF09799, SEQ ID NO: 1) variant 1466, G210A/A214S/H97A/S139G/N167G/P169A/G462D (Citrobacter freundii, UniProt A0A0D7LMP4, A214S/G210A/G462D/H97A/N167G/P169A/S139G). Format: biochemical. Particulars: acetyl-CoA 0-10 mM, 2-ketooctanoate 2 mM, pH 7.5, 30° C.
Sequence of Citrobacter freundii MGH 56 isopropylmalate synthase (Gene Accession No. KDF09799, SEQ ID NO: 1) variant 1466, G210A/A214S/H97A/S139G/N167G/P169A/G462D (A0A0D7LMP4 entry or part of it A214S/G210A/G462D/H97A/N167G/P169A/S139G): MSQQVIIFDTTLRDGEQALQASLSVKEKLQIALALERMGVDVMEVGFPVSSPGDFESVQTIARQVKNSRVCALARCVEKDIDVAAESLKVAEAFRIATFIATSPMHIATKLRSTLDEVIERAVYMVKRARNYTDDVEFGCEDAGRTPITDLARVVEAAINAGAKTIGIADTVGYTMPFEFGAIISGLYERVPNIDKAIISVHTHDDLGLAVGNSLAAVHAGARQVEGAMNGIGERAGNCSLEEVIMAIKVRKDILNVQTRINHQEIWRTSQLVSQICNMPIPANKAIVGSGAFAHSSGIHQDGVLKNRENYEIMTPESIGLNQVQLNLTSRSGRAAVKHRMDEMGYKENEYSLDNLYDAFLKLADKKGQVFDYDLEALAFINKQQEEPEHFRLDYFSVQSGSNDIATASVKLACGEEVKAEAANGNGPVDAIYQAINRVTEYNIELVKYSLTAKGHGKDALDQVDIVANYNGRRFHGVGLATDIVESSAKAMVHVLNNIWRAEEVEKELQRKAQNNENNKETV
Substrate in data set [9]: CC(=O)SCCNC(=O)CCNC(=O)[C@H](O)C(C)(C)COP(=O)(O)OP(=O)(O)OC[C@H]1O[C@@H](n2cnc3c(N)ncnc32)[C@H](O)[C@@H]1OP(=O)(O)O
The data set can be described thus: Kinetic evaluation of isopropylmalate synthase construct 614 (DTNB/CoASH assay). Format: biochemical, E. coli. Particulars: other: acetyl-CoA 0-10 mM, 2-ketooctanoate 2 mM, pH 7.5, 30° C. As to the method: (§1) Codons of 13 additional amino acids that included six histidine's were fused upstream of the codon of Met-1 of each IPMS gene sequence. Such a modification allowed expression of a His-tagged IPMS having 13 additional amino acids on the N-terminus. To the resulting modified gene, additional bases were added to introduce a NcoI and a SacI restriction site at the 5′- and 3′-end, respectively, for cloning purposes. The whole DNA sequence was chemically synthesized and cloned into the E. coli expression vector, pETDuet-1 at the NcoI and SacI sites by SGI Inc. His-tagged IPMSs were heterologously expressed in E. coli BL21 (DE3) cells and purified using Co-NTA chromatography. It is noted that none of the Sequence Listings included herein show the histidine-tag that is used, which in this case is […]
(§2) For expressing isopropylmalate synthases and its variants, competent cells of E. coli BL21(DE3) cells (acquired from EMD Biosciences) were transformed using standard procedures with the pETDuet expression vector containig their gene sequences. Cells harboring the expression vector were selected on LB agar plates containing 50 μg/mL of ampicillin. A starter culture was started by transferring a single colony of transformant into 50 mL of LB medium containing 100 μg/mL of ampicillin and incubated at 37° C. with shaking at 220 rpm overnight. On the next day, 7 mL of starter culture was inoculated into 800 mL of Terrific Broth (TB) and the culture was incubated at 37° C. until it reached an OD600 nm of 0.5. Isopropyl β-D-1-thiogalacto-pyranoside (IPTG) at a final concentration of 1 mM was added to induce the expression of the isopropylmalate synthase or its variant and the culture was transferred to a 15° C. incubator for 16 hours (h). At the end of 16 h, the culture was centrifuged at 8000 revolutions per minute (rpm) to pelletize the cells. The cell pellet was stored at −80° C. overnight before purification.
(§3) For isolation and purification of the enzyme, cell pellet taken from 400 mL of expression culture was suspended in B-PER reagent (Thermo Fisher Scientific, Inc., Rockford, Ill.) containing 1 μg/mL of DNAse (Thermo Fisher Scientific, Inc., Rockford, Ill.), 1 μg/mL of lysozyme (Thermo Fisher Scientific, Inc., Rockford, Ill.), 1 millimolar (mM) of dithiothreitol, and protease inhibitor cocktail (RPI Corp., Mount Prospect, Ill.). The suspension was rocked gently for 30 minutes (min) at room temperature and centrifuged at 15,000 times gravity (×g) for 20 min to pelletize cell debris. The supernatant was separated and incubated with 5 mL of Co-NTA resin (Thermo Fisher Scientific, Inc., Rockford, Ill.) that had been pre-equilibrated with an equilibration buffer (50 mM sodium phosphate, pH 8.0, containing 300 mM sodium chloride, 20 mM imidazole, 50 μL protease inhibitor cocktail, and 15% glycerol). Following an incubation period of 1 h at 4° C., the enzyme bound resin was washed with 5 volumes of equilibration buffer. Isopropylmalate synthase or its variants were eluted from the Co-NTA resin with equilibration buffer containing 200 mM imidazole. The eluted proteins were dialyzed against phosphate buffered saline and stored as a 20% glycerol solution at −20° C.
(§4) The evaluation of the LeuA variants was performed in two steps using the high-throughput enzyme assay described below. Initially, all the variants were tested for activity against a single high concentration of 2-KBut, 2-KHex, and 2-KOct. The spectrophotometric isopropylmalate synthase enzyme assay reported by Marcheschi et al (Marcheschi, R. J.; Li, H.; Zhang, K.; Noey, E. L.; Kim, S.; Chaubey, A.; Houk, K. N.; Liao, J. C. A synthetic recursive “+1” pathway for carbon chain elongation. ACS chemical biology 2012, 7, 689-697) was adapted into a high-throughput format in 96-well plates for the kinetic evaluation of the isopropylmalate synthase variants (shown in Table 1). […]

Substrate in data set [10]: CCCCCCC(=O)C(=O)O
Described as above. In kind it is biochemical, E. coli. Particulars: other: 2-ketooctanoate 0-3.2 mM, acetyl-CoA 2 mM, pH 7.5, 30° C. As to the method: as §1, §2, §3, §4

The mark [11] stands for this setting: 2-ketooctanoate 0-3.2 mM, acetyl-CoA 2 mM.
The mark [12] stands for this setting: acetyl-CoA 0-10 mM, 2-ketooctanoate 2 mM.

Sequence of Citrobacter freundii MGH 56 isopropylmalate synthase (Gene Accession No. KDF09799, SEQ ID NO: 1) variant 1409, H97A/S139G/N167G/P169A/G462D (A0A0D7LMP4 entry or part of it G462D/H97A/N167G/P169A/S139G): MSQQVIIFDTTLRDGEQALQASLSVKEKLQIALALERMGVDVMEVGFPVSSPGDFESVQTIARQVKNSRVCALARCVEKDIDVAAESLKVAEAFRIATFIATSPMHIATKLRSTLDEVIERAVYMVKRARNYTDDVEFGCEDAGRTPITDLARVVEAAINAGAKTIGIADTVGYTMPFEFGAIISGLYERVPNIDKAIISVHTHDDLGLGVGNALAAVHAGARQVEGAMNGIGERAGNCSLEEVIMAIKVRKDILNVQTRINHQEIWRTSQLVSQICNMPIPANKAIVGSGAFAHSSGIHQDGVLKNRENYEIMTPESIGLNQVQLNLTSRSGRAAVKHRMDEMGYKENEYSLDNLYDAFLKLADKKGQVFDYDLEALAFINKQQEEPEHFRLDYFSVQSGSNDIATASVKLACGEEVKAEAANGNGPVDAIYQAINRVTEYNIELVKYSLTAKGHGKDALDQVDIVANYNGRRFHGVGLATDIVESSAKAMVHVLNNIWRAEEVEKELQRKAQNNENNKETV

Broadly, the Km is the substrate concentration at which the rate is half of its maximum. “Enterobacter cloacae isopropylmalate synthase (Gene Accession No. WP_014830637, SEQ ID NO: 2) variant 1414, H97A/S139G/N167G/P169A/G462D (Enterobacter cloacae subsp. cloacae ATCC 13047; G462D/H97A/N167G/P169A/S139G)”: the Km in the data set on CCCCCCC(=O)C(=O)O turned out to be 124 ± 8 µM.

Regarding “Enterobacter cloacae isopropylmalate synthase (Gene Accession No. WP_014830637, SEQ ID NO: 2) variant 1457, M255L/R260A/N264Q/H97A/S139G/N167G/P169A/G462D (Enterobacter cloacae subsp. cloacae ATCC 13047; G462D/H97A/M255L/N167G/N264Q/P169A/R260A/S139G)”, in the data set with CCCCCCC(=O)C(=O)O, the Km was 176 ± 9 µM.

As to “Citrobacter freundii MGH 56 isopropylmalate synthase (Gene Accession No. KDF09799, SEQ ID NO: 1) variant 1467, G181A/A182G/G210A/A214S/H97A/S139G/N167G/P169A/G462D (Citrobacter freundii; A182G/A214S/G181A/G210A/G462D/H97A/N167G/P169A/S139G)”, the Michaelis-Menten constant (Km) in the data set with CCCCCCC(=O)C(=O)O is 92 ± 9 µM.

In the case of “Enterobacter cloacae isopropylmalate synthase (Gene Accession No. WP_014830637, SEQ ID NO: 2) variant 1460, D348E/D350E/M353L/Q355N/H97A/S139G/N167G/P169A/G462D (Enterobacter cloacae subsp. cloacae ATCC 13047; D348E/D350E/G462D/H97A/M353L/N167G/P169A/Q355N/S139G)”, the Km in the data set on CCCCCCC(=O)C(=O)O came to 170 ± 7 µM.

Consider `CCCCCCC(=O)C(=O)O` [2-Ketooctanoic acid, 2-ketooctanoic acid], for which the “kcat (2-ketooctanoic acid)” value was 4.12 ± 0.09 s⁻¹ in data set [1] (setting [11]); 2.47 ± 0.083 s⁻¹ in data set [3] (setting [11]); 3.5 ± 0.0583 s⁻¹ in data set [4] (setting [11]); 2.8 ± 0.065 s⁻¹ in data set [5] (setting [11]); 0.205 ± 0.0083 s⁻¹ in data set [6] (setting [11]). For the same molecule, the “kcat/KM (2-ketooctanoic acid)” value was found to be 23550 ± 983 M⁻¹ s⁻¹ in data set [1] (setting [11]); 26450 ± 1970 M⁻¹ s⁻¹ in data set [3] (setting [11]); 20620 ± 983 M⁻¹ s⁻¹ in data set [4] (setting [11]); 22580 ± 983 M⁻¹ s⁻¹ in data set [5] (setting [11]); 2930 ± 300 M⁻¹ s⁻¹ in [6] (setting [11]). Besides, the “% more efficient than construct 614 in capturing 2-ketooctanoate (kcat/KM)” value in [2] (vs E. coli construct 614) is 30-40%. In data set [2] (vs parent 1409), the “fold more efficient than parent construct 1409 in capturing 2-ketooctanoate (kcat/KM)” value stood at 9 fold.

As to “Citrobacter freundii MGH 56 isopropylmalate synthase (Gene Accession No. KDF09799, SEQ ID NO: 1) variant 1409, H97A/S139G/N167G/P169A/G462D (Citrobacter freundii; G462D/H97A/N167G/P169A/S139G)”, the Km with CCCCCCC(=O)C(=O)O stood at 64 ± 9 µM; in data set [7], 450 ± 240 µM.

With `CC(=O)SCCNC(=O)CCNC(=O)[C@H](O)C(C)(C)COP(=O)(O)OP(=O)(O)OC[C@H]1O[C@@H](n2cnc3c(N)ncnc32)[C@H](O)[C@@H]1OP(=O)(O)O` [acetyl CoA, acetyl coenzyme A], the “kcat (acetyl CoA)” value was 3.83 ± 0.083 s⁻¹ in [1] (setting [12]); 5.2 ± 0.25 s⁻¹ in data set [3] (setting [12]); 3.43 ± 0.267 s⁻¹ in data set [4] (setting [12]); 0.4 ± 0.04 s⁻¹ in data set [8]; 2.35 ± 0.083 s⁻¹ in data set [5] (setting [12]); 0.118 ± 0.02 s⁻¹ in data set [6] (setting [12]).

B1: E. coli isopropylmalate synthase (LeuA, Gene Accession No. EG11226) variant 614, H97A/S139G/N167G/P169A/G462D (Escherichia coli K-12; … (protein)
chain: MSQQVIIFDTTLRDGEQALQASLSVKEKLQIALALERMGVDVMEVGFPVSSPGDFESVQTIARQVKNSRVCALARCVEKDIDVAAESLKVAEAFRIATFIATSPMHIATKLRSTLDEVIERAIYMVKRARNYTDDVEFGCEDAGRTPIADLARVVEAAINAGATTIGIADTVGYTMPFEFAGIISGLYERVPNIDKAIISVHTHDDLGLAVGNSLAAVHAGARQVEGAMNGIGERAGNCSLEEVIMAIKVRKDILNVHTAINHQEIWRTSQLVSQICNMPIPANKAIVGSGAFAHSSGIHQDGVLKNRENYEIMTPESIGLNQIQLNLTSRSGRAAVKHRMDEMGYKESEYNLDNLYDAFLKLADKKGQVFDYDLEALAFIGKQQEEPEHFRLDYFSVQSGSNDIATAAVKLACGEEVKAEAANGNGPVDAVYQAINRITEYNVELVKYSLTAKGHGKDALDQVDIVANYNGRRFHGVGLATDIVESSAKAMVHVLNNIWRAAEVEKELQRKAQHNENNKETV
notes: His-tag (13 additional amino acids, six histidines) (N); made in house; host or cells: E. coli BL21 (DE3)
For orientation: kcat means the number of substrate molecules converted per active site and unit of time at saturation. One may read the kcat/Km as the turnover number divided by the Michaelis constant. With B1, in [9], the Km came out at 830 ± 50 µM, the kcat turned out to be 4.4 ± 0.133 s⁻¹ and the kcat/Km is 5370 ± 383 M⁻¹ s⁻¹. Also, in [10], the Km was 250 ± 35 µM, the catalytic constant (kcat) came out at 4.53 ± 0.3 s⁻¹ and the kcat/Km was determined as 18600 ± 1950 M⁻¹ s⁻¹.
